Test results from patent publication US11180470B2, “Herbicidal pyrimidine compounds” (BASF SE, priority 2016, dated 2021).

Assays:
[1] = system: ECHCG; assay: greenhouse experiment, post-emergence treatment; type: in vivo, Echinocloa crus-galli; conditions: post-emergence method, scale from 0 to 100
Procedure: The seeds of the test plants were sown separately for each species. […] For this purpose, the test plants were either sown directly and grown in the same containers, or they were first grown separately as seedlings and transplanted into the test containers a few days prior to treatment. Depending on the species, the plants were kept at 10-25° C. or 20-35° C., respectively. The test period extended over 2 to 4 weeks. During this time, the plants were tended, and their response to the individual treatments was evaluated. Evaluation was carried out using a scale from 0 to 100. 100 means no emergence of the plants, or complete destruction of at least the aerial moieties, and 0 means no damage, or normal course of growth. A good herbicidal activity is given at values of at least 70 and a very good herbicidal activity is given at values of at least 85. The plants used in the greenhouse experiments were of the following species: [table]

[2] = system: ECHCG; assay: greenhouse experiment, pre-emergence treatment; type: in vivo, Echinocloa crus-galli; conditions: pre-emergence method, scale from 0 to 100
Text: (§1) The seeds of the test plants were sown separately for each species. For the pre-emergence treatment, the active ingredients, which had been suspended or emulsified in water, were applied directly after sowing by means of finely distributing nozzles. The containers were irrigated gently to promote germination and growth and subsequently covered with transparent plastic hoods until the plants had rooted. This cover caused uniform germination of the test plants, unless this had been impaired by the active ingredients. Depending on the species, the plants were kept at 10-25° C. or 20-35° C., respectively. The test period extended over 2 to 4 weeks. During this time, the plants were tended, and their response to the individual treatments was evaluated. Evaluation was carried out using a scale from 0 to 100. 100 means no emergence of the plants, or complete destruction of at least the aerial moieties, and 0 means no damage, or normal course of growth. A good herbicidal activity is given at values of at least 70 and a very good herbicidal activity is given at values of at least 85. The plants used in the greenhouse experiments were of the following species: [table]

[3] = system: APESV; assay: greenhouse experiment, pre-emergence treatment; type: in vivo, Apera spica-venti; conditions: pre-emergence method, scale from 0 to 100
Text: as §1

[4] = system: ALOMY; assay: greenhouse experiment, post-emergence treatment; type: in vivo, Alopecurus myosuroides; conditions: post-emergence method, scale from 0 to 100
Text: (§2) The culture containers used were plastic flowerpots containing loamy sand with approximately 3.0% of humus as the substrate. The seeds of the test plants were sown separately for each species.
(§3) For the post-emergence treatment, the test plants were first grown to a height of 3 to 15 cm, depending on the plant habit, and only then treated with the active ingredients which had been suspended or emulsified in water. For this purpose, the test plants were either sown directly and grown in the same containers, or they were first grown separately as seedlings and transplanted into the test containers a few days prior to treatment.
(§4) Depending on the species, the plants were kept at 10-25° C. or 20-35° C., respectively.
(§5) The test period extended over 2 to 4 weeks. During this time, the plants were tended, and their response to the individual treatments was evaluated.
(§6) Evaluation was carried out using a scale from 0 to 100. 100 means no emergence of the plants, or complete destruction of at least the aerial moieties, and 0 means no damage, or normal course of growth. A good herbicidal activity is given at values of at least 70 and a very good herbicidal activity is given at values of at least 85.
(§7) The plants used in the greenhouse experiments were of the following species: […]

[5] = system: AVEFA; assay: greenhouse experiment, post-emergence treatment; type: in vivo, Avena fatua; conditions: post-emergence method, scale from 0 to 100
Text: as §2, §3, §4, §5, §6, §7

SMILES | herbicidal activity against ECHCG ([1]; application rate 2000 g/ha) | herbicidal activity against ECHCG ([2]; application rate 2000 g/ha) | herbicidal activity against APESV ([3]; application rate 2000 g/ha) | further results
COC(=O)c1nc(C2CC2)ncc1-c1sccc1C [Example 4] | very good (a very good herbicidal activity is given at values of at least 85) | very good (a very good herbicidal activity is given at values of at least 85) | – | –
COC(=O)c1nc(C2CC2)ncc1-c1ccsc1C [Example 5] | – | very good (a very good herbicidal activity is given at values of at least 85) | – | –
Cc1cscc1-c1cnc(C2CC2)nc1C(=O)O [Example 6] | very good (a very good herbicidal activity is given at values of at least 85) | very good (a very good herbicidal activity is given at values of at least 85) | very good (a very good herbicidal activity is given at values of at least 85) | –
COC(=O)c1nc(C2CC2)ncc1-c1cscc1C [Example 7] | very good (a very good herbicidal activity is given at values of at least 85) | very good (a very good herbicidal activity is given at values of at least 85) | – | –
Cc1sccc1-c1cnc(C2CC2)nc1C(=O)O [Example 8] | – | very good (a very good herbicidal activity is given at values of at least 85) | very good (a very good herbicidal activity is given at values of at least 85) | –
COC(=O)c1nc(C2CC2)ncc1-c1ccsc1Cl [Example 11] | – | – | – | herbicidal activity against ALOMY ([4]; application rate 1000 g/ha): very good (a very good herbicidal activity is given at values of at least 85); herbicidal activity against AVEFA ([5]; application rate 1000 g/ha): good (A good herbicidal activity is given at values of at least 70); herbicidal activity against ECHCG ([2]; application rate 1000 g/ha): very good (a very good herbicidal activity is given at values of at least 85)
O=C(O)c1nc(C2CC2)ncc1-c1ccsc1Cl [Example 12] | – | – | – | herbicidal activity against ALOMY ([4]; application rate 1000 g/ha): very good (a very good herbicidal activity is given at values of at least 85); herbicidal activity against AVEFA ([5]; application rate 1000 g/ha): very good (a very good herbicidal activity is given at values of at least 85); herbicidal activity against APESV ([3]; application rate 1000 g/ha): very good (a very good herbicidal activity is given at values of at least 85); herbicidal activity against ECHCG ([2]; application rate 1000 g/ha): very good (a very good herbicidal activity is given at values of at least 85)
O=C(O)c1nc(C2CC2)ncc1-c1ccoc1Cl [Example 13] | very good (a very good herbicidal activity is given at values of at least 85) | very good (a very good herbicidal activity is given at values of at least 85) | very good (a very good herbicidal activity is given at values of at least 85) | herbicidal activity against ALOMY ([4]; application rate 2000 g/ha): very good (a very good herbicidal activity is given at values of at least 85)
O=C(O)c1nc(C2CC2)ncc1-c1ccoc1Br [Example 14] | – | – | – | herbicidal activity against APESV ([3]; application rate 1000 g/ha): good (A good herbicidal activity is given at values of at least 70); herbicidal activity against ECHCG ([2]; application rate 1000 g/ha): very good (a very good herbicidal activity is given at values of at least 85)
COC(=O)c1nc(C2CC2)ncc1-c1ccoc1Cl [Example 15] | – | good (A good herbicidal activity is given at values of at least 70) | – | –
COC(=O)c1nc(C2CC2)ncc1-c1ncccc1Cl [Example 16] | – | – | – | herbicidal activity against ALOMY ([4]; application rate 1000 g/ha): very good (a very good herbicidal activity is given at values of at least 85); herbicidal activity against AVEFA ([5]; application rate 1000 g/ha): good (A good herbicidal activity is given at values of at least 70); herbicidal activity against ECHCG ([1]; application rate 1000 g/ha): very good (a very good herbicidal activity is given at values of at least 85); herbicidal activity against APESV ([3]; application rate 1000 g/ha): good (A good herbicidal activity is given at values of at least 70); herbicidal activity against ECHCG ([2]; application rate 1000 g/ha): good (A good herbicidal activity is given at values of at least 70)
O=C(O)c1nc(C2CC2)ncc1-c1cccnc1Br [Example 20] | very good (a very good herbicidal activity is given at values of at least 85) | very good (a very good herbicidal activity is given at values of at least 85) | very good (a very good herbicidal activity is given at values of at least 85) | herbicidal activity against AVEFA ([5]; application rate 2000 g/ha): very good (a very good herbicidal activity is given at values of at least 85)
O=C(O)c1nc(C2CC2)ncc1-c1ncccc1F [Example 23] | very good (a very good herbicidal activity is given at values of at least 85) | very good (a very good herbicidal activity is given at values of at least 85) | very good (a very good herbicidal activity is given at values of at least 85) | herbicidal activity against ALOMY ([4]; application rate 2000 g/ha): very good (a very good herbicidal activity is given at values of at least 85)
COC(=O)c1nc(C2CC2)ncc1-c1cccnc1F [Example 25] | – | – | – | herbicidal activity against ECHCG ([1]; application rate 1000 g/ha): very good (a very good herbicidal activity is given at values of at least 85)
O=C(O)c1nc(C2CC2)ncc1-c1ncc(F)cc1F [Example 36] | – | very good (a very good herbicidal activity is given at values of at least 85) | very good (a very good herbicidal activity is given at values of at least 85) | herbicidal activity against ALOMY ([4]; application rate 2000 g/ha): very good (a very good herbicidal activity is given at values of at least 85); herbicidal activity against AVEFA ([5]; application rate 2000 g/ha): very good (a very good herbicidal activity is given at values of at least 85)
O=C(O)c1nc(C2CC2)ncc1-c1ccncc1F [Example 37] | good (A good herbicidal activity is given at values of at least 70) | very good (a very good herbicidal activity is given at values of at least 85) | good (A good herbicidal activity is given at values of at least 70) | herbicidal activity against ALOMY ([4]; application rate 2000 g/ha): good (A good herbicidal activity is given at values of at least 70)
CCc1ncc(-c2ncccc2Br)c(C(=O)OC)n1 [Example 43] | – | very good (a very good herbicidal activity is given at values of at least 85) | – | –
CCc1ncc(-c2ncccc2F)c(C(=O)O)n1 [Example 50] | – | – | – | herbicidal activity against ECHCG ([1]; application rate 1000 g/ha): very good (a very good herbicidal activity is given at values of at least 85)
COc1ncc(-c2ncccc2Br)c(C(=O)O)n1 [Example 51] | good (A good herbicidal activity is given at values of at least 70) | – | – | herbicidal activity against ALOMY ([4]; application rate 2000 g/ha): good (A good herbicidal activity is given at values of at least 70); herbicidal activity against AVEFA ([5]; application rate 2000 g/ha): good (A good herbicidal activity is given at values of at least 70)
